ChEMBL document CHEMBL3779893, “Identification of novel GLUT inhibitors” (Bioorg Med Chem Lett, 2016)

Legend:
[1] = molecular target: T1, Solute carrier family 2, facilitated glucose transporter member 2 (Homo sapiens, UniProt P11168); experiment: Inhibition of human GLUT2 expressed in CHO cells assessed as ATP production co-incubated with 30 mM fructose for 16 hrs by CellTiter-Glo assay in presence of oxidative phosphorylation inhibitor rotenone; assay type: cell-based
T1 sequence (P11168 whole entry): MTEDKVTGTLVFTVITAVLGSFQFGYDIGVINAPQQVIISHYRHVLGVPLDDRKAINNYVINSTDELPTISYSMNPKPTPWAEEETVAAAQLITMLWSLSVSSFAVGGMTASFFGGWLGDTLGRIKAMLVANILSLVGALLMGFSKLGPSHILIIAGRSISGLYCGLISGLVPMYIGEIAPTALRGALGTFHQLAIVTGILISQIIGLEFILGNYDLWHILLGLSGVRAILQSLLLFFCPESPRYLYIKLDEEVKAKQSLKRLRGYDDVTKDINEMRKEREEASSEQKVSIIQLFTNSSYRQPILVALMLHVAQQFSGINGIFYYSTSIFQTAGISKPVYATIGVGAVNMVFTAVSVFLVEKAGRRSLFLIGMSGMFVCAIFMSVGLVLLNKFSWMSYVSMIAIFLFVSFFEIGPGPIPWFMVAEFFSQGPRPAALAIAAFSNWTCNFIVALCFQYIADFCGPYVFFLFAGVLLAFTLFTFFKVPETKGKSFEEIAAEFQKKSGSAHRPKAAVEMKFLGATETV

[2] = Intrinsic clearance in human liver microsomes; assay type: ADME; details: read-out: CLH (converted)
[3] = molecular target: T2, Solute carrier family 2, facilitated glucose transporter member 3 (Homo sapiens, UniProt P11169); experiment: Inhibition of human GLUT3 expressed in GLUT1 knock-out DLD1 cells assessed as ATP production co-incubated with 300 mM glucose for 16 hrs by CellTiter-Glo assay in presence of oxidative phosphorylation inhibitor rotenone; assay type: cell-based, DLD-1
T2 sequence (P11169 whole entry): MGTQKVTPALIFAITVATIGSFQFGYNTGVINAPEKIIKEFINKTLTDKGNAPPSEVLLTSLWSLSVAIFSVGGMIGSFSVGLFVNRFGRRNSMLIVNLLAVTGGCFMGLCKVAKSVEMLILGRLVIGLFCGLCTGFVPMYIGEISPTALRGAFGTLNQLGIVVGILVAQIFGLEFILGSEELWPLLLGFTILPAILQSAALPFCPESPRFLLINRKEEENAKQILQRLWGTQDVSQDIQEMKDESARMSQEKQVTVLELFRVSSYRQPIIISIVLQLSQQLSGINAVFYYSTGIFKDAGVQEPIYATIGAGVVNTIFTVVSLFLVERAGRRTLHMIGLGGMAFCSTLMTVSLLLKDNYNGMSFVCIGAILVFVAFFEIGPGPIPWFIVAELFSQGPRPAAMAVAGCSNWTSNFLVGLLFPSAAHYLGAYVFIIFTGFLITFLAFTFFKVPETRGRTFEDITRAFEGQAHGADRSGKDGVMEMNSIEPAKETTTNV

[4] = molecular target: T3, Solute carrier family 2, facilitated glucose transporter member 1 (Homo sapiens, UniProt P11166); experiment: Inhibition of human GLUT1 expressed in DLD1 cells assessed as ATP production co-incubated with 100 mM glucose for 16 hrs by CellTiter-Glo assay in presence of oxidative phosphorylation inhibitor rotenone; assay type: cell-based, DLD-1
T3 sequence (P11166 whole entry): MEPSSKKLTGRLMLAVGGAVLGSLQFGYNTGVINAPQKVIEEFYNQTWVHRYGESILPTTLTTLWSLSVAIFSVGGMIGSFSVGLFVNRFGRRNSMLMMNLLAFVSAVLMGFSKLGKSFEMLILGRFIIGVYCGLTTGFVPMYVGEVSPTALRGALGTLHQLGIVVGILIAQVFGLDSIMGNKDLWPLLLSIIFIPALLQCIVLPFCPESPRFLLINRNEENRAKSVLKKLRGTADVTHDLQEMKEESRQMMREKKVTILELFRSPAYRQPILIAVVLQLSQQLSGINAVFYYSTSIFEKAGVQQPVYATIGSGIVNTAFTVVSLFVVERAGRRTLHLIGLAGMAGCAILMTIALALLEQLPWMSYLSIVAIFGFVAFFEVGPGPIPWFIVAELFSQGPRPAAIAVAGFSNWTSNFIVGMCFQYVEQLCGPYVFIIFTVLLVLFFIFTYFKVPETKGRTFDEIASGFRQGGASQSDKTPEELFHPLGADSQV

[5] = Intrinsic clearance in rat hepatocytes; assay type: ADME, cell-based, Hepatocyte; details: read-out: CLH (converted)
[6] = Apparent permeability from apical to basolateral side in human Caco2 cells at 2 uM after 2 hrs; assay type: ADME, cell-based; details: Caco-2
[7] = Efflux ratio of apparent permeability from basolateral to apical side over apical to basolateral side in human Caco2 cells; assay type: ADME, cell-based; details: Caco-2
[8] = Intrinsic clearance in rat liver microsomes; assay type: ADME; details: read-out: CLH (converted)
[9] = Intrinsic clearance in mouse liver microsomes; assay type: ADME; details: read-out: CLH (converted)
[10] = Intrinsic clearance in human hepatocytes; assay type: ADME, cell-based, Hepatocyte; details: read-out: CLH (converted)
[11] = Oral bioavailability in Wistar rat at 5 mg/kg; assay type: ADME, organism-based; details: in vivo
[12] = Terminal half life in Wistar rat at 0.3 mg/kg, iv and 5 mg/kg, po; assay type: ADME, organism-based; details: in vivo, read-out: beta t1/2 (converted)
[13] = Volume of distribution at steady state in Wistar rat at 0.3 mg/kg, iv and 5 mg/kg, po; assay type: ADME, organism-based; details: in vivo, read-out: Vdss
[14] = Blood clearance in Wistar rat at 0.3 mg/kg, iv and 5 mg/kg, po; assay type: ADME, organism-based; details: whole blood
[15] = Cmax in Wistar rat at 5 mg/kg, po; assay type: ADME, organism-based; set-up: dose 5 mg/kg, route oral; details: in vivo

Row | IC50 [1] [nM] | CLint scaled [2] [mL/min/kg] | IC50 [3] [nM] | IC50 [4] [nM] | CLint scaled [5] [mL/min/kg] | Papp A→B at 2 h, 2 µM [6] [×10⁻⁶ cm/s] | efflux ratio [7] | CLint scaled [8] [mL/min/kg] | CLint scaled [9] [mL/min/kg] | CLint scaled [10] [mL/min/kg] | bioavailability [11] [%] | half-life [12] [h] | Vd [13] [L/kg] | clearance [14] [mL/min/kg] | Cmax [15] [nM] | SMILES
1 | > 10000 | 6.17 | 10 | 1 | 43.3 |  |  |  |  |  |  |  |  |  |  | COc1ccc(F)cc1N1CCN(c2ncnc3c2cnn3-c2ccccc2)CC1
2 | 2000 | 13.8 | 120 | 40 | 61.7 | 15.3 | 0.33 |  |  |  |  |  |  |  |  | COc1ccccc1N1CCN(c2ncnc3c2cnn3C2CCCC2)CC1
3 | > 10000 | 2.33 | 250 | 25 | 45 | 5.9 | 0.29 | 36.7 | 38.3 | 14 |  |  |  |  |  | COc1ccccc1N1CCN(c2ncnc3c2cnn3-c2ccccc2)CC1
4 | 1100 | 8.33 | 40 | 7 | 36.7 | 17.5 | 0.42 |  | 28.3 | 13.2 | 67 | 2.7 | 1.9 | 20 | 1700 | COc1ccccc1N1CCN(c2ncnc3c2cnn3-c2ccccc2F)CC1
5 | > 10000 | 9.17 | 120 | 35 |  |  |  |  | 31.7 |  |  |  |  |  |  | COc1ccccc1N1CCN(c2ncnc3c2cnn3-c2cccc(F)c2)CC1
